Data from patent US20200405687A1, “METHODS FOR THE TREATMENT OF INFECTION” (Corbus Pharmaceuticals, Inc., priority 2016, published 2020).

Legend:
Pseudomonas aeruginosa [1] = assay: Pseudomonas aeruginosa agarose bead lung infection in WT C57BL/6J mice (Example 1); format: in vivo
Description: Ajulemic acid (AJA) was tested in mice inoculated with Pseudomonas aeruginosa to determine its effect on treatment of infection, including the ability to promote bacterial clearance. Mice (WT, C57BL/6J) were inoculated with Pseudomonas aeruginosa agarose beads in the lungs and then treated twice daily with oral doses of ajulemic acid at 1 mg/kg and 5 mg/kg. Ajulemic acid was then administered by gavage at 1 mg/kg or 5 mg/kg dose BID in 2% methylcellulose for 10 days starting 24 hours after establishing chronic Pseudomonas aeruginosa infection. WT animals in this study were followed daily for clinical score and weights for 10 days. At Day 10, animals were euthanized and evaluated for bacteria load (colony forming units, cfus), total bronchoalveolar lavage (BAL), white blood cell counts (WBCs), and differential cell counts.
The study was conducted with 40 wild type female C57BL/6J mice. Each group of mice was inoculated with 10^5 colony forming units (CFUs) of Pseudomonas aeruginosa (PAM 5715, a CF clinical isolate). One day post infection, mice were given either 2% methylcellulose, 2% methylcellulose+1 mg/kg ajulemic acid, or 2% methylcellulose+5 mg/kg ajulemic acid BID. Animals were followed for 10 days. At day 10, animals were euthanized for BAL CFUs, differentials, total white blood cell count with fluid, and pellet saved for future studies.
Treatment and control groups include the following Pseudomonas aeruginosa infected controls treated with 2% methylcellulose, Pseudomonas aeruginosa infected animals treated with 1 mg/kg BID AJA in 2% methylcellulose, Pseudomonas aeruginosa infected animals treated with 5 mg/kg BID AJA in 2% methylcellulose, and untreated baseline controls.

[2] = Phase 2 study in subjects having cystic fibrosis, acute pulmonary exacerbations and safety (Example 4); format: in vivo, human
Description: An international, multi-center, double-blinded, randomized, placebo-controlled Phase 2 study was performed in subjects having cystic fibrosis. The primary objective of the study was to test safety and tolerability of ajulemic acid in adults with cystic fibrosis who had forced expiratory volume in 1 second (FEV1) percent predicted at least 40% predicted, without regard to their CFTR mutation, infecting pathogen, or baseline treatment. Events of special interest included acute exacerbations requiring intravenous antibiotic treatment or treatment with new antibiotics.
Eighty-five subjects on stable standard-of-care medications were dosed with ajulemic acid at 21 cystic fibrosis centers in the U.S. and Europe and treated with ajulemic acid daily for a period of 84 days, with a follow-up period of 28 days. During the first part of the study (weeks 1-4) subjects were randomized to the following treatment groups: placebo (n=35), 1 mg/day ajulemic acid (n=26) or 5 mg/day ajulemic acid (n=24). During the second part of the study (weeks 5-13), subjects given ajulemic acid in the first part of the study were re-randomized to ajulemic acid 20 mg once per day (n=31) or ajulemic acid 20 mg twice a day (n=30) with 11 subjects from the placebo group also being randomized to the ajulemic acid arms. The last part of the study was a 28 day follow up period post treatment.

Pseudomonas aeruginosa [3] = assay: Pseudomonas aeruginosa agarose bead lung infection in Cftr KO and WT mice (Example 2); format: in vivo
Description: A limited number of both WT (C57BL/6J, n=5) and Cftr KO (congenic-homologous, DelF508-FABP gut corrected animals, n=5) were evaluated for safety, toxicity, and efficacy upon oral dosing of 5 mg/kg ajulemic acid BID. As controls, PA infected WT C57BL/6J and Cftr KO mice were given the 2% methylcellulose vehicle. Cftr KO and WT animals in this study were followed daily for clinical score and weights for 10 days. At Day 10, animals were euthanized and evaluated for bacteria load (colony forming units, cfus), total bronchoalveolar lavage (BAL) white blood cell counts (WBCs), and differential cell counts.
Mice were inoculated with Pseudomonas aeruginosa (PA) agaroses beads in the lungs and then treated twice daily with oral doses of ajulemic acid at 1 mg/kg and 5 mg/kg. Ajulemic acid was then administered by gavage at 1 mg/kg or 5 mg/kg dose BID in 2% methylcellulose for 10 days starting 24 hours after establishing chronic Pseudomonas aeruginosa (PA) infection. The study included 4 groups:
1) C57BL/6J+vehicle (WT DIL, n=5),
2) C57BL/6J+5 mg/kg ajulemic acid BID (WT AJ, n=5),
3) Cftr KO+vehicle (CF DIL, n=5), and
4) Cftr KO+5 mg/kg ajulemic acid BID (CF AJ, n=5),
and all animals were chronically infected with Pseudomonas aeruginosa using a standard agarose bead model.

[4] = 1 mg/day, 5 mg/day, or 20 mg/day, respective treatment periods
[5] = across doses, compared to placebo

Compound: CCCCCCC(C)(C)c1cc(O)c2c(c1)OC(C)(C)[C@@H]1CC=C(C(=O)O)C[C@@H]21 [ajulemic acid, (6aR,10aR)-1-hydroxy-6,6-dimethyl-3-(2-methyl-2-octanyl)-6a,7,10,10a-tetrahydro-6H-benzo[c]chromene-9-carboxylic acid]
- white blood cell response (Pseudomonas aeruginosa [1]; 1 mg/kg and 5 mg/kg BID oral, day 3, relative to controls infected or not infected): elevated
- weight profiles (body weight maintenance) (Pseudomonas aeruginosa [1]; 1 mg/kg or 5 mg/kg BID, 10 days): no real adverse effect
- bacterial load of Pseudomonas aeruginosa (bacterial CFUs in the lungs) (Pseudomonas aeruginosa [1]; 5 mg/kg BID oral, day 10): effective at decreasing the overall number of bacterial CFUs in the lungs
- treatment of infection compared with vehicle (Pseudomonas aeruginosa [1]; WT C57BL/6J mice): more efficient at treating infection than vehicle
- tolerability (Pseudomonas aeruginosa [1]; WT C57BL/6J mice, 1 or 5 mg/kg BID oral, 10 days): well tolerated
- white blood cells (Pseudomonas aeruginosa [1]; all groups, day 10, compared to controls): normalized
- levels of neutrophils (Pseudomonas aeruginosa [1]; all treatment groups relative to the non-treated control): elevated levels of neutrophils
- levels of lymphocytes or eosinophils (Pseudomonas aeruginosa [1]; any of the groups): no significant difference
- alveolar macrophages (Pseudomonas aeruginosa [1]; treatment groups, by day 10): increase in alveolar macrophages
- neutrophils (Pseudomonas aeruginosa [1]; treatment groups, by day 10): decreased neutrophils
- Acute pulmonary exacerbations requiring a new antibiotic, Subjects ([2]; 1 mg, N = 22, Weeks 1-4, placebo 6 (25.0)): 3 (13.6) n/N at risk (%)
- Acute pulmonary exacerbations requiring intravenous antibiotics, Subjects ([2]; 1 mg, Weeks 1-4, placebo 3 (8.6)): 1 (3.8) n (% at risk)
- acute pulmonary exacerbations requiring any new antibiotic [2, 4]: Reductions were also observed
- acute pulmonary exacerbations requiring intravenous antibiotics [2, 4]: Reductions were also observed
- Acute pulmonary exacerbations requiring a new antibiotic, Subjects ([2]; 5 mg, N = 23, Weeks 1-4, placebo 6 (25.0)): 3 (13.0) n/N at risk (%)
- Acute pulmonary exacerbations requiring intravenous antibiotics, Subjects ([2]; 5 mg, Weeks 1-4, placebo 3 (8.6)): 1 (4.2) n (% at risk)
- Acute pulmonary exacerbations requiring a new antibiotic, Subjects ([2]; 20 mg BID, N = 22, Post-treatment, placebo 2 (22.2)): 2 (9.1) n/N at risk (%)
- Acute pulmonary exacerbations requiring a new antibiotic, Subjects ([2]; 20 mg BID, N = 24, Weeks 5-12, placebo 9 (50.0)): 2 (8.3) n/N at risk (%)
- Acute pulmonary exacerbations requiring intravenous antibiotics, Subjects ([2]; 20 mg BID, Weeks 5-12, placebo 3 (16.7)): 1 (3.3) n (% at risk)
- reduction in the 48 week rate of acute pulmonary exacerbations requiring any new antibiotic ([2]; 20 mg BID, compared to placebo): 82%
- reduction in the 48 week rate of acute pulmonary exacerbations requiring intravenous antibiotics ([2]; 20 mg BID, compared to placebo): 75%
- Acute pulmonary exacerbations requiring a new antibiotic, Subjects ([2]; 20 mg, N = 20, Post-treatment, placebo 2 (22.2)): 6 (30.0) n/N at risk (%)
- Acute pulmonary exacerbations requiring a new antibiotic, Subjects ([2]; 20 mg, N = 25, Weeks 5-12, placebo 9 (50.0)): 4 (16.0) n/N at risk (%)
- Acute pulmonary exacerbations requiring intravenous antibiotics, Subjects ([2]; 20 mg, Weeks 5-12, placebo 3 (16.7)): 3 (6.5) n (% at risk)
- subjects withdrawn due to adverse events ([2]; 85 subjects dosed, 2 on placebo): 3 subjects
- occurrence of acute pulmonary exacerbations requiring treatment with any new antibiotic [2, 5]: dose-dependent decrease
- occurrence of acute pulmonary exacerbations requiring treatment with intravenous antibiotics [2, 5]: dose-dependent decrease
- related serious or severe treatment emergent adverse events ([2]; adults with cystic fibrosis, 1-20 mg BID, 84 days): No related serious or severe treatment emergent adverse events
- Survival Rate (Day 10) (Pseudomonas aeruginosa [3]; Cftr KO (CF) mice, 5 mg/kg BID oral, n=5, vehicle 3/5, 5 mg/kg): 5/5
- BAL WBC counts (Pseudomonas aeruginosa [3]; Cftr KO mice, 5 mg/kg BID): decreased BAL WBC counts
- number of alveolar macrophages (Pseudomonas aeruginosa [3]; Cftr KO mice, 5 mg/kg BID): increase the number of alveolar macrophages
- weight loss (Pseudomonas aeruginosa [3]; Cftr KO mice, 5 mg/kg BID, P<0.01): decreased weight loss
- numbers of neutrophils (Pseudomonas aeruginosa [3]; Cftr KO mice, 5 mg/kg BID, P<0.05): decreased numbers of neutrophils
- ability to resolve pulmonary infection as assessed by lung CFUs (Pseudomonas aeruginosa [3]; Cftr KO mice, 5 mg/kg BID, Pvariance=0.002): improved the ability of the animals to resolve pulmonary infection
